Laboratory results from patent US8952024B2, “Herbicidal pyrimidone derivatives” (E I du Pont de Nemours and Company, priority 2009, dated 2015).
Read-outs that look alike come from different tables or passages of the source.

Legend:
Test in all cases: Test B pre-/postemergence plant response
Assay type in all cases: in vivo
[1] = test system: Italian ryegrass (Lolium multiflorum); conditions: for pest or weed control at 31 g/ha: 31 g ai/ha; for pest or weed control at 125 g/ha: 125 g ai/ha
Method in brief: (§1)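 Steps: sow seed in loam–sand soil and spray preemergence, or grow plants in peat-based medium to 1–4 leaves (2–18 cm) and spray postemergence; formulation is non-phytotoxic solvent plus surfactant; hold in greenhouse 13–15 days; score visually vs controls, 0 = no effect, 100 = complete control.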

[2] = test system: Surinam grass (Brachiaria decumbens); conditions: for pest or weed control at 31 g/ha: 31 g ai/ha; for pest or weed control at 125 g/ha: 125 g ai/ha
Method in brief: as §1

[3] = test system: bermudagrass (Cynodon dactylon); conditions: for pest or weed control at 31 g/ha: 31 g ai/ha; for pest or weed control at 125 g/ha: 125 g ai/ha
Method in brief: as §1

[4] = test system: blackgrass (Alopecurus myosuroides); conditions: for pest or weed control at 31 g/ha: 31 g ai/ha; for pest or weed control at 125 g/ha: 125 g ai/ha
Method in brief: as §1

[5] = test system: cocklebur (Xanthium strumarium); conditions: for pest or weed control at 31 g/ha: 31 g ai/ha; for pest or weed control at 125 g/ha: 125 g ai/ha
Method in brief: as §1

[6] = test system: corn (Zea mays); conditions: for Corn plant response rating (crop injury, 0 = no effect, 100 = complete kill) at 31 g/ha: 31 g ai/ha; for Corn plant response rating (crop injury, 0 = no effect, 100 = complete kill) at 125 g/ha: 125 g ai/ha
Method in brief: as §1

[7] = test system: downy bromegrass (Bromus tectorum); conditions: for pest or weed control at 31 g/ha: 31 g ai/ha; for pest or weed control at 125 g/ha: 125 g ai/ha
Method in brief: as §1

[8] = test system: green foxtail (Setaria viridis); conditions: for pest or weed control at 31 g/ha: 31 g ai/ha; for pest or weed control at 125 g/ha: 125 g ai/ha
Method in brief: as §1

[9] = test system: kochia (Kochia scoparia); conditions: postemergence, 100 is complete control
Method in brief: as §1

[10] = 62 g ai/ha, postemergence, 0 is no effect, 100 is complete control, 13 to 15 days
[11] = Preemergence, 250 g ai/ha, 0 to 100 scale

COCCCn1c(-c2ccccc2)ncc(C(=O)C2=C(O)CCCC2=O)c1=O [Compound 81, 5-[(2-hydroxy-6-oxo-cyclohexen-1-yl)carbonyl]-3-(3-methoxypropyl)-2-phenyl-4(3H)-pyrimidinone]
Ryegrass, Italian plant response rating (0 to 100 scale) [1, 10]: 5
pest or weed control at 31 g/ha ([1]; Lolium multiflorum, post-emergence, postemergence, scale 0 to 100, 0 is no effect, 100 is complete control, read-out: Plant response rating, Ryegrass, Italian): 0%
pest or weed control at 125 g/ha ([1]; Lolium multiflorum, post-emergence, Postemergence, visual rating after 13 to 15 days, scale 0 (no effect) to 100 (complete control)): 45%
pest or weed control at 250 g/ha ([1]; Lolium multiflorum, post-emergence, Postemergence, 250 g ai/ha, scale 0 to 100 (0 no effect, 100 complete control), read-out: Plant response rating, Ryegrass, Italian): 55%
pest or weed control at 31 g/ha ([1]; Lolium multiflorum, pre-emergence, Preemergence, scale 0 to 100 (0 no effect, 100 complete control), read-out: Plant response rating, Ryegrass, Italian): 0%
pest or weed control at 62 g/ha ([1]; Lolium multiflorum, pre-emergence, Preemergence, 62 g ai/ha, scale 0 to 100 (0 no effect, 100 complete control), read-out: Plant response rating, Ryegrass, Italian): 0%
pest or weed control at 125 g/ha ([1]; Lolium multiflorum, pre-emergence, Preemergence, scale 0 to 100, 0 no effect, 100 complete control, read-out: Plant response rating, Ryegrass, Italian): 0%
Ryegrass, Italian plant response rating [1, 11]: 0
Surinam Grass plant response rating (0 to 100 scale) [2, 10]: 90
Surinam Grass plant response rating [2, 11]: 100
pest or weed control at 31 g/ha ([2]; Urochloa decumbens, post-emergence, postemergence, scale 0 to 100, 0 is no effect, 100 is complete control, read-out: Plant response rating, Surinam Grass): 75%
pest or weed control at 125 g/ha ([2]; Urochloa decumbens, post-emergence, Postemergence, visual rating after 13 to 15 days, scale 0 (no effect) to 100 (complete control)): 98%
pest or weed control at 250 g/ha ([2]; Urochloa decumbens, post-emergence, Postemergence, 250 g ai/ha, scale 0 to 100 (0 no effect, 100 complete control), read-out: Plant response rating, Surinam Grass): 100%
pest or weed control at 31 g/ha ([2]; Urochloa decumbens, pre-emergence, Preemergence, scale 0 to 100 (0 no effect, 100 complete control), read-out: Plant response rating, Surinam Grass): 98%
pest or weed control at 62 g/ha ([2]; Urochloa decumbens, pre-emergence, Preemergence, 62 g ai/ha, scale 0 to 100 (0 no effect, 100 complete control), read-out: Plant response rating, Surinam Grass): 100%
pest or weed control at 125 g/ha ([2]; Urochloa decumbens, pre-emergence, Preemergence, scale 0 to 100, 0 no effect, 100 complete control, read-out: Plant response rating, Surinam Grass): 100%
Bermudagrass plant response rating (0 to 100 scale) [3, 10]: 85
pest or weed control at 31 g/ha ([3]; Cynodon dactylon, post-emergence, postemergence, scale 0 to 100, 0 is no effect, 100 is complete control, read-out: Plant response rating, Bermudagrass): 85%
pest or weed control at 125 g/ha ([3]; Cynodon dactylon, post-emergence, Postemergence, visual rating after 13 to 15 days, scale 0 (no effect) to 100 (complete control)): 95%
pest or weed control at 250 g/ha ([3]; Cynodon dactylon, post-emergence, Postemergence, 250 g ai/ha, scale 0 to 100 (0 no effect, 100 complete control), read-out: Plant response rating, Bermudagrass): 95%
pest or weed control at 31 g/ha ([3]; Cynodon dactylon, pre-emergence, Preemergence, scale 0 to 100 (0 no effect, 100 complete control), read-out: Plant response rating, Bermudagrass): 100%
pest or weed control at 62 g/ha ([3]; Cynodon dactylon, pre-emergence, Preemergence, 62 g ai/ha, scale 0 to 100, 0 no effect, 100 complete control, read-out: Plant response rating, Bermudagrass): 100%
pest or weed control at 125 g/ha ([3]; Cynodon dactylon, pre-emergence, Preemergence, scale 0 to 100, 0 no effect, 100 complete control, read-out: Plant response rating, Bermudagrass): 100%
Bermudagrass plant response rating ([3]; Preemergence, 250 g ai/ha, 0 to 100 scale, 0 no effect, 100 complete control): 100
Blackgrass plant response rating (0 to 100 scale) [4, 10]: 10
pest or weed control at 31 g/ha ([4]; Alopecurus myosuroides, post-emergence, 360 h, postemergence, scale 0 to 100, 0 is no effect, 100 is complete control, read-out: Plant response rating, Blackgrass): 5%
pest or weed control at 125 g/ha ([4]; Alopecurus myosuroides, post-emergence, 360 h, Postemergence, visual rating after 13 to 15 days, scale 0 (no effect) to 100 (complete control)): 30%
pest or weed control at 250 g/ha ([4]; Alopecurus myosuroides, post-emergence, 360 h, Postemergence, 250 g ai/ha, scale 0 to 100 (0 no effect, 100 complete control), read-out: Plant response rating, Blackgrass): 30%
pest or weed control at 31 g/ha ([4]; Alopecurus myosuroides, pre-emergence, 360 h, Preemergence, scale 0 to 100 (0 no effect, 100 complete control), read-out: Plant response rating, Blackgrass): 0%
pest or weed control at 62 g/ha ([4]; Alopecurus myosuroides, pre-emergence, 360 h, Preemergence, 62 g ai/ha, scale 0 to 100, 0 no effect, 100 complete control, read-out: Plant response rating, Blackgrass): 0%
pest or weed control at 125 g/ha ([4]; Alopecurus myosuroides, pre-emergence, 360 h, Preemergence, scale 0 to 100, 0 no effect, 100 complete control, read-out: Plant response rating, Blackgrass): 35%
Blackgrass plant response rating [4, 11]: 35
Cocklebur plant response rating (0 to 100 scale) [5, 10]: 55
Cocklebur plant response rating [5, 11]: 85
pest or weed control at 31 g/ha ([5]; Xanthium strumarium, post-emergence, postemergence, scale 0 to 100, 0 is no effect, 100 is complete control, read-out: Plant response rating, Cocklebur): 5%
pest or weed control at 125 g/ha ([5]; Xanthium strumarium, post-emergence, Postemergence, visual rating after 13 to 15 days, scale 0 (no effect) to 100 (complete control)): 65%
pest or weed control at 250 g/ha ([5]; Xanthium strumarium, post-emergence, Postemergence, 250 g ai/ha, scale 0 to 100 (0 no effect, 100 complete control), read-out: Plant response rating, Cocklebur): 90%
pest or weed control at 31 g/ha ([5]; Xanthium strumarium, pre-emergence, Preemergence, scale 0 to 100 (0 no effect, 100 complete control), read-out: Plant response rating, Cocklebur): 0%
pest or weed control at 62 g/ha ([5]; Xanthium strumarium, pre-emergence, Preemergence, 62 g ai/ha, scale 0 to 100, 0 no effect, 100 complete control, read-out: Plant response rating, Cocklebur): 10%
pest or weed control at 125 g/ha ([5]; Xanthium strumarium, pre-emergence, Preemergence, scale 0 to 100, 0 no effect, 100 complete control, read-out: Plant response rating, Cocklebur): 75%
Corn plant response rating (0 to 100 scale) [6, 10]: 10
Corn plant response rating [6, 11]: 55
Corn plant response rating (crop injury, 0 = no effect, 100 = complete kill) at 31 g/ha ([6]; Zea mays, post-emergence, postemergence, scale 0 to 100, 0 is no effect, 100 is complete control): 5%
Corn plant response rating (crop injury, 0 = no effect, 100 = complete kill) at 125 g/ha ([6]; Zea mays, post-emergence, Postemergence, visual rating after 13 to 15 days, scale 0 (no effect) to 100 (complete control)): 15%
Corn plant response rating (crop injury, 0 = no effect, 100 = complete kill) at 250 g/ha ([6]; Zea mays, post-emergence, Postemergence, 250 g ai/ha, scale 0 to 100 (0 no effect, 100 complete control)): 65%
Corn plant response rating (crop injury, 0 = no effect, 100 = complete kill) at 31 g/ha ([6]; Zea mays, pre-emergence, Preemergence, scale 0 to 100 (0 no effect, 100 complete control)): 40%
Corn plant response rating (crop injury, 0 = no effect, 100 = complete kill) at 62 g/ha ([6]; Zea mays, pre-emergence, Preemergence, 62 g ai/ha, scale 0 to 100, 0 no effect, 100 complete control): 40%
Corn plant response rating (crop injury, 0 = no effect, 100 = complete kill) at 125 g/ha ([6]; Zea mays, pre-emergence, Preemergence, scale 0 to 100, 0 no effect, 100 complete control): 50%
Bromegrass, Downy plant response rating (0 to 100 scale) [7, 10]: 5
pest or weed control at 31 g/ha ([7]; Bromus tectorum, post-emergence, postemergence, scale 0 to 100, 0 is no effect, 100 is complete control, read-out: Plant response rating, Bromegrass, Downy): 5%
pest or weed control at 125 g/ha ([7]; Bromus tectorum, post-emergence, Postemergence, visual rating after 13 to 15 days, scale 0 (no effect) to 100 (complete control)): 30%
pest or weed control at 250 g/ha ([7]; Bromus tectorum, post-emergence, Postemergence, 250 g ai/ha, scale 0 to 100 (0 no effect, 100 complete control), read-out: Plant response rating, Bromegrass, Downy): 50%
pest or weed control at 31 g/ha ([7]; Bromus tectorum, pre-emergence, Preemergence, scale 0 to 100 (0 no effect, 100 complete control), read-out: Plant response rating, Bromegrass, Downy): 0%
pest or weed control at 62 g/ha ([7]; Bromus tectorum, pre-emergence, Preemergence, 62 g ai/ha, scale 0 to 100, 0 no effect, 100 complete control, read-out: Plant response rating, Bromegrass, Downy): 0%
pest or weed control at 125 g/ha ([7]; Bromus tectorum, pre-emergence, Preemergence, scale 0 to 100, 0 no effect, 100 complete control, read-out: Plant response rating, Bromegrass, Downy): 0%
Bromegrass, Downy plant response rating [7, 11]: 0
Foxtail, Green plant response rating (0 to 100 scale) [8, 10]: 85
Foxtail, Green plant response rating [8, 11]: 100
pest or weed control at 31 g/ha ([8]; Setaria viridis, post-emergence, postemergence, scale 0 to 100, 0 is no effect, 100 is complete control, read-out: Plant response rating, Foxtail, Green): 5%
pest or weed control at 125 g/ha ([8]; Setaria viridis, post-emergence, Postemergence, visual rating after 13 to 15 days, scale 0 (no effect) to 100 (complete control)): 95%
pest or weed control at 250 g/ha ([8]; Setaria viridis, post-emergence, Postemergence, 250 g ai/ha, scale 0 to 100 (0 no effect, 100 complete control), read-out: Plant response rating, Foxtail, Green): 95%
pest or weed control at 31 g/ha ([8]; Setaria viridis, pre-emergence, Preemergence, scale 0 to 100 (0 no effect, 100 complete control), read-out: Plant response rating, Foxtail, Green): 80%
pest or weed control at 62 g/ha ([8]; Setaria viridis, pre-emergence, Preemergence, 62 g ai/ha, scale 0 to 100, 0 no effect, 100 complete control, read-out: Plant response rating, Foxtail, Green): 90%
pest or weed control at 125 g/ha ([8]; Setaria viridis, pre-emergence, Preemergence, scale 0 to 100, 0 no effect, 100 complete control, read-out: Plant response rating, Foxtail, Green): 100%
Kochia plant response rating (0 to 100 scale) ([9]; 62 g ai/ha, 0 is no effect, 13 to 15 days): 80
pest or weed control at 31 g/ha ([9]; Bassia scoparia, post-emergence, 31 g ai/ha, scale 0 to 100, 0 is no effect, read-out: Plant response rating, Kochia): 75%
